Structures can show the parent of a compound that is named as a salt. Where two headings read alike, the source gives them in different places.
What was measured:
MEF = assay: cells; set-up: species or system L929sAhFas or MEF; protection from TNF-induced cell death, percentage PI-positive nuclei by high-content imaging; details: Mus musculus, mTNF + BV6, inhibition of induced cell death
Description: (c,d) HT-29 and Jurkat FADD−/− cells were pretreated for 1 h with DMSO, Nec-1 or Sorafenib (concentrations as indicated) and stimulated for 6 h with 30 ng/ml hTNF, 1 μM BV6 and 30 μM zVAD (HT-29) or stimulated for 10 h with 100 ng/ml hTNF (Jurkat FADD−/−). (a-d) Data were normalized to DMSO-treated control cells and represent the mean value±S.E.M. of three independent experiments. Toxic concentrations were removed from the analysis. L929sAhFas and MEF cells were stained with Hoechst and PI and percentage PI-positive nuclei was determined using high-content image analysis (BD pathway Bioimager). For HT-29 and Jurkat FADD−/− cells, cell death was determined by PI staining and flow cytometry. […] Cell death in AML cells was determined by PI staining and flow cytometry. […] Smac mimetic BV6[34] instead of TAK1i was used as a sensitizer for testing of mouse embryonic fibroblasts (MEF) and human cell lines. […] Since Sorafenib is used to treat AML,[27] we also included two AML cell lines to investigate whether it alters the sensitivity of these cells to necroptotic stimuli (BV6 in the presence of zVAD-fmk).[34]

L929sAhFas = assay: cells; set-up: high-content necroptosis screen, percentage PI-positive nuclei as percent of DMSO plus stimulus control
Source text: To identify novel inhibitors or regulators of necroptosis, 500 small compounds from libraries targeting autophagy, kinases, phosphatases, proteases and redox balance were screened for their ability to block TNF-induced necroptosis in murine L929sAhFas cells. Three conditions were used to induce necroptosis in L929 cells: TNF alone, TNF+TAK1 inhibitor (TAK1i) and TNF+zVAD-fmk, a pan-caspase inhibitor. Inhibition of TAK1 or caspases sensitizes to necroptosis.[13], [32] Necroptosis, measured as the percentage of PI-positive nuclei normalized to the plate-specific DMSO control, was determined for each compound (Supplementary Figure 1A). […] After compound treatment, L929sAhFas (a) or L929 (b) cells were stimulated with mTNF (T), mTNF+Tak1i (TiT) or mTNF+zVAD (zVT) (Supplementary Figure 1A and B). (a) Cell death percentage (% PI-positive nuclei) or cell loss was calculated as percent of control (DMSO+stimulus). […] (b) Cell loss (luminescence-based readout for ATP) was calculated as percent of control (DMSO+stimulus). […] In stimulated conditions, % PI-positive nuclei was determined as % of DMSO control. Data represent mean values±S.E.M. of two independent experiments. Cells were stained with Hoechst and PI and percentage PI-positive nuclei was determined using high-content image analysis (BD pathway Bioimager). (d) L929sAhFas cells were treated with Sorafenib (concentration as indicated) for 24 h. Then, stimulus was removed, 50 cells/condition seeded and colonies counted with crystal violet staining after 10 days incubation. […] Schemes of workflow screening assays in L929 cell lines. (A) Scheme of the workflow of a high-content screening assay on L929sAhFas cells using mTNF (T) and mTNF+Tak1i ((5Z)-7-Oxozeaenol) (TiT) to induce necroptotic cell death. Nec-1 and zVAD-fmk were used as protective and sensitizing benchmarks, respectively, on all plates. (B) Scheme of the workflow of a CellTiter-Glo luminescent cell viability screening assay on L929 cells using mTNF+zVAD (zVT) to induce necroptotic cell death. Supplementary Figure S2. Z’ calculation for cell death screening assays in L929 cells. (A) Z’ calculation for cell death screening assay (Fig. 1A) in mTNF-stimulated L929sAhFas cells. (B) Z’ calculation for cell death screening assay (Fig. 1A) in L929sAhFas cells stimulated with mTNF + Taki.

Work on CNC(=O)c1cc(Oc2ccc(NC(=O)Nc3ccc(Cl)c(C(F)(F)F)c3)cc2)ccn1 [Sorafenib tosylate] yielded an IC50 (MEF) of 2200 ± 470 nM, an activity at 10 µM (L929sAhFas; read-out: cell death TNF (POC)) of 41.5% and an activity at 10 µM (L929sAhFas; read-out: cell death TNF/Taki (POC)) of 11.8%.
